{"source": "paper PMC13184981", "about": "“Discovery and Development of a Potent LIMK2 Isoform-Specific Degrader” (ACS Chemical Biology, 2026)", "key": {"LIMK2": {"biological_target": "LIMK2 (Homo sapiens, UniProt P53671)", "sequence (P53671 whole entry)": "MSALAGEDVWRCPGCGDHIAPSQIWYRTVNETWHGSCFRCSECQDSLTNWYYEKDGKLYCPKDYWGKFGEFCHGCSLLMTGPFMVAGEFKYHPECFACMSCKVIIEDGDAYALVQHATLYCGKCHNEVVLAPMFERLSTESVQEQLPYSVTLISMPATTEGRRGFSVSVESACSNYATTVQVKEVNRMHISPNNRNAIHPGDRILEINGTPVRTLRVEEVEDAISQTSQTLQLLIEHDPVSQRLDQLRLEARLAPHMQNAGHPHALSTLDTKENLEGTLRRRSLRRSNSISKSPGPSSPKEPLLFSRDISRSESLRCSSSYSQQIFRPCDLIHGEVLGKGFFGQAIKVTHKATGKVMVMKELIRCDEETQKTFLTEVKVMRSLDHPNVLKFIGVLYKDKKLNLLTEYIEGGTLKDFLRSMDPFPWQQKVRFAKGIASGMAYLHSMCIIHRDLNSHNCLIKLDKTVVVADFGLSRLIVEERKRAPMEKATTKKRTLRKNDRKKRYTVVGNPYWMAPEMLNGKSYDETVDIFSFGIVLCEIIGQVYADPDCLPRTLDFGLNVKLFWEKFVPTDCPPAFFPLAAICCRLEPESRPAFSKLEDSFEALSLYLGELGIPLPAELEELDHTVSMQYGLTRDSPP", "experiment": "Western blot of endogenous LIMK2 in HuCCT1 cells", "format": "cell-based", "procedure": "HuCCT1 cell line was cultured in Roswell Park Memorial Institute (RPMI) 1640 medium supplemented with GlutaMAX, 10% fetal bovine serum (FBS), and 1% penicillin/streptomycin. The cell line was maintained in an incubator with 5% CO2 at 37 °C. For the treatment, 3 × 10^5 cells were plated and treated with the compounds and DMSO as the control for 6 h. The cells were then lysed using RIPA buffer (50 mM Tris-HCl pH 7.4, 150 mM NaCl, 1% Triton X-100, 1% NaDOC, 0.1% SDS, 1 mM EDTA), freshly supplemented with protease and phosphatase inhibitor cocktails (Sigma-Aldrich, Darmstadt, Germany). After 1 h incubation on ice, the lysates were centrifuged for 30 min at […], and the protein-containing supernatant was collected. The protein concentrations were determined using Protein Assay Dye Reagent Concentrate (Bradford, Bio-Rad, Hercules, CA, USA) and Pre-Diluted Protein Assay Standards: Bovine Serum Albumin (BSA) Set (Thermo Fisher Scientific, Darmstadt, Germany). Then, equal amounts of protein was mixed with Roti-Load 1 dye (Carl Roth, Karlsruhe, Germany) and 4x Laemmli Buffer (Bio-Rad, Hercules, CA, USA), denatured at 95 °C, and run on NuPAGE 4–12% bis-Tris gels (Thermo Fisher Scientific). Proteins were blotted on methanol-activated PVDF Transfer Membranes (Thermo Fisher Scientific) using the wet transfer method with the transfer buffer (Thermo Fisher Scientific) and 20% methanol. Afterward, the membranes were blocked with 5% milk or 3% BSA in 0.1% TBS-T for 1 h at RT and incubated overnight at 4 °C with primary antibodies: GAPDH (catalog no. 2118, Cell Signaling Technology, MA, USA, 1:1000 dilution), LIMK1 (catalog no. 3842, Cell Signaling Technology, 1:1000 dilution), LIMK2 (catalog no. 3845, 1:500 dilution), phospho-Cofilin (catalog no. 3313, Cell Signaling Technology, 1:1000 dilution), Cofilin (catalog no. 5175, Cell Signaling Technology, 1:1000 dilution). Then, the membranes were washed with 0.1% TBS-T and incubated with secondary horseradish-peroxidase (HRP)-conjugated antibody for 2 h (catalog no. 7074, Cell Signaling Technology, 1:3000 dilution). The membranes were washed again with 0.1% TBS-T before they were developed using X-ray films (Fujifilm, Dusseldorf, Germany)."}, "phospho-Cofilin (pCFL)": {"system": "phospho-Cofilin (pCFL)", "experiment": "Western blot of phospho-cofilin in HuCCT1 cells", "format": "cell-based, human", "details": "HuCCT1, 6 h", "procedure": "HuCCT1 cell line was cultured in Roswell Park Memorial Institute (RPMI) 1640 medium supplemented with GlutaMAX, 10% fetal bovine serum (FBS), and 1% penicillin/streptomycin. The cell line was maintained in an incubator with 5% CO2 at 37 °C. For the treatment, 3 × 10^5 cells were plated and treated with the compounds and DMSO as the control for 6 h. The cells were then lysed using RIPA buffer (50 mM Tris-HCl pH 7.4, 150 mM NaCl, 1% Triton X-100, 1% NaDOC, 0.1% SDS, 1 mM EDTA), freshly supplemented with protease and phosphatase inhibitor cocktails (Sigma-Aldrich, Darmstadt, Germany). After 1 h incubation on ice, the lysates were centrifuged for 30 min at […], and the protein-containing supernatant was collected. The protein concentrations were determined using Protein Assay Dye Reagent Concentrate (Bradford, Bio-Rad, Hercules, CA, USA) and Pre-Diluted Protein Assay Standards: Bovine Serum Albumin (BSA) Set (Thermo Fisher Scientific, Darmstadt, Germany). Then, equal amounts of protein was mixed with Roti-Load 1 dye (Carl Roth, Karlsruhe, Germany) and 4x Laemmli Buffer (Bio-Rad, Hercules, CA, USA), denatured at 95 °C, and run on NuPAGE 4–12% bis-Tris gels (Thermo Fisher Scientific). Proteins were blotted on methanol-activated PVDF Transfer Membranes (Thermo Fisher Scientific) using the wet transfer method with the transfer buffer (Thermo Fisher Scientific) and 20% methanol. […]"}, "[1]": {"system": "CFL1, CFL2 and DSTN phosphorylation", "experiment": "Phospho-proteomics", "format": "cell-based, human", "details": "HuCCT1, 500 nM, 6 h", "procedure": "Cells were lysed in SDS-lysis buffer (50 mM Tris, pH 8.5, 2% SDS, 10 mM TCEP, 40 mM chloroacetamide, protease inhibitor cocktail, phosphatase inhibitor) and boiled at 95 °C for 10 min. Proteins were precipitated using methanol-chloroform and resuspended in 8 M urea, 50 mM Tris, pH 8.5. Proteins were digested with 1:50 w/w LysC (Wako Chemicals, cleaves at the carboxylic side of lysine residue) and 1:100 w/w trypsin (Promega, Sequencing-grade) overnight at 37 °C after dilution to a final urea concentration of 1 M using 50 mM Tris pH 8.5. Digested peptides were then acidified (pH 2–3) using trifluoroacetic acid (TFA) and purified using C18 SepPak columns (Waters). […]\nTryptic peptides were analyzed on an Orbitrap Lumos coupled to an easy nLC 1200 (ThermoFisher Scientific) using a 35 cm long, 75 μm ID fused-silica column packed in-house with 1.9 μm C18 particles (Reprosil pur, Dr. Maisch), and kept at 50 °C using an integrated column oven (Sonation). […] MS2 scans for quantification were performed on the 10 most intense MS ions with an isolation window of 0.7 Th. Ions were fragmented using HCD with a normalized collision energy of 35% and analyzed in the Orbitrap with a resolution of 50,000 at m/z 200, scan range of 100–500 m/z, AGC target value of 1 × 10^5, and a maximum injection time of 86 ms. […]\nMS raw data were analyzed using MaxQuant (2.4.2.0). […]"}}, "data": [{"smiles": "Cc1c(OCc2cn(CCCCC(=O)Nc3ncc(-c4cc(C(F)F)nn4-c4c(Cl)cccc4Cl)s3)nn2)cccc1N1CCC(=O)NC1=O", "note": "[22b]", "values": [{"measurement": "concentration giving near-complete depletion of endogenous LIMK2", "setting": "LIMK2; HuCCT1, 6 h, Western blot", "value": 10, "unit": "nM"}, {"measurement": "LIMK2 degradation (Western blot)", "setting": "LIMK2; HuCCT1, 6 h treatment", "value": "strong LIMK2-selective degradation"}, {"measurement": "pCFL levels (Western blot)", "setting": "phospho-Cofilin (pCFL)", "value": "no significant changes in pCFL"}, {"measurement": "phosphorylation of CFL1, CFL2 and DSTN", "setting": "[1]", "value": "no significant change in phosphorylation"}]}]}
